Results published in US11752196B2, “Treatment of pyroptosis” (priority 2018, dated 2023).

Tested on: GSDMD cleavage in Huh7 hepatocytes
Experiment: LPS-induced pyroptosis (GSDMD cleavage) in Huh7 hepatocytes pre-treated with tunicamycin and/or very low-dose LPS
Format: cell-based, Human
Settings: tunicamycin and/or LPS 1 μg/ml for 24 hours, then LPS 30 μg/ml
Method: FIG. 13—LPS-dependent pyroptosis in hepatocytes and priming by ER stress.
All measurements were performed in triplicate.
In addition to hepatocyte ER stress, increased levels of circulating endotoxin are detected in advanced liver disease. Therefore, to determine the importance of hepatocyte ER stress and low-level endotoxin exposure as mediators of upregulation of the caspase-4/11 pathway, Huh7 hepatocytes were pre-treated with the ER stress inducer, tunicamycin and/or very low-dose LPS (1 μg/ml) for 24 hours, prior to the LPS ‘hit’ (30 μg/ml) (FIG. 13). […] Importantly, in these experiments hepatocyte pyroptosis was independent of the TLR4 pathway, as GSDMD cleavage was not inhibited by the TLR4 antagonist TAK-242. Caspase-11 deficient mice are protected from hepatic and extra-hepatic organ injury in ACLF Casp11^−/− mice are deficient in the caspase-11 pathway, but the caspase-1 pathway remains intact. Casp11^−/− mice develop a similar level of advanced fibrosis/cirrhosis compared to wildtype (wt) after treatment with 20 doses of CCl4 (FIG. 14A).

**Q.** Which “GSDMD cleavage (inhibition by TLR4 antagonist)” value does the source give for `CCOC(=O)C1=CCCC[C@H]1S(=O)(=O)Nc1ccc(F)cc1Cl` [TAK-242] here?
**A.** The value was “not inhibited”.
